# Laboratory results published in patent US10155766B2, “Pyrazolopyrimidine antibacterial agents” (priority 2016, dated 2018).
# Entries after “also recorded” stand apart in the source; their conditions may differ.
# What was measured:
# [1] = tested on: Pseudomonas aeruginosa (ATCC 27853); test: microbe, parasite or virus in culture; format: cell-based; details: for zone of inhibition at 100 µM / zone of inhibition at 500 µM / zone of inhibition at 1000 µM: Pseudomonas aeruginosa, ATCC27853, read-out: Zone of inhibition (diameter, in millimeter) P. aeruginosa; for zone of inhibition at 100 µM: Conc. 0.1 mM; for zone of inhibition at 500 µM: Conc. 0.5 mM; for zone of inhibition at 1000 µM: Conc. 1.0 mM
# BtIspD = target: T1, BtIspD (Burkholderia thailandensis, UniProt Q2SWT6); format: binding
# T1 construct: 6xHis (AVA0421 vector, 3C-cleavable) (N, cleaved yes); made in house; host or cells: E. coli BL21(DE3)R3 Rosetta Oxford
# T1 sequence (Q2SWT6 1-236): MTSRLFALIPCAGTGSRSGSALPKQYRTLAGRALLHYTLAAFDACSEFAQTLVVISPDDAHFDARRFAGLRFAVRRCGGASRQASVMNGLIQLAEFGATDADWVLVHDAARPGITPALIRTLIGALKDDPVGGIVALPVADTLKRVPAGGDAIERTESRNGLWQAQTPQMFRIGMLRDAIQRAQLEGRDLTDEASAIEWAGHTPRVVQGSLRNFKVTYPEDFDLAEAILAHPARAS
# [2] = tested on: Burkholderia thailandensis (E 264); test: microbe, parasite or virus in culture; format: cell-based; details: for zone of inhibition at 100 µM / zone of inhibition at 500 µM / zone of inhibition at 1000 µM: Burkholderia thailandensis, read-out: Zone of inhibition (diameter, in millimeter) B. thailandensis; for zone of inhibition at 100 µM: Conc. 0.1 mM; for zone of inhibition at 500 µM: Conc. 0.5 mM; for zone of inhibition at 1000 µM: Conc. 1.0 mM
# BtIspE = format: binding, Burkholderia thailandensis
# [3] = tested on: Mycobacterium abscessus (Ma) IspE; format: binding
# [4] = target: T2, Mycobacterium paratuberculosis (Mp) IspD (Mycolicibacterium paratuberculosis, UniProt Q743W5); format: binding
# T2 sequence (Q743W5 1-235): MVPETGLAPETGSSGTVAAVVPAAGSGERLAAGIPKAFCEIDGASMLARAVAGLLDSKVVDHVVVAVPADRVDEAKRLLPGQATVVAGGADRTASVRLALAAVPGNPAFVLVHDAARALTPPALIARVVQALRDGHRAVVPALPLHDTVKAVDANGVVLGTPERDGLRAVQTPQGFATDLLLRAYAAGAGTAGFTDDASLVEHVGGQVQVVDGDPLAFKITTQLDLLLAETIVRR
# BpIspF = BpIspF (Burkholderia pseudomallei, UniProt Q63T71); format: binding, B. pseudomallei
# [5] = Solubility observed in work-up; details: in water and ethyl acetate
# BpIspF, sequence (Q63T71 whole entry, looked up): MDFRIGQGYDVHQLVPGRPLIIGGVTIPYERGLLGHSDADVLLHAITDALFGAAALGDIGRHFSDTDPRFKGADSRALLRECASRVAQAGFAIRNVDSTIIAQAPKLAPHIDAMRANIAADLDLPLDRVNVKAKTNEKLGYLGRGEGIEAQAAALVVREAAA
SMILES,concentration at which inhibitory activity against kanamycin resistant P. aeruginosa is shown [1] [mM],growth inhibition of P. aeruginosa (in words) [1],zone of inhibition at 100 µM [1] [mm],zone of inhibition at 500 µM [1] [mm],zone of inhibition at 1000 µM [1] [mm],melting point [°C],STD-NMR binding to BtIspD (in words) (BtIspD),growth inhibition of B. thailandensis (in words) [2],zone of inhibition at 100 µM [2] [mm],zone of inhibition at 500 µM [2] [mm],zone of inhibition at 1000 µM [2] [mm],STD-NMR binding to BtIspE (in words) (BtIspE),change of % STD binding signal to BtIspE after subsequent addition of CDP (BtIspE),change of % STD binding signal to BtIspE upon addition of ADP (BtIspE),fragment binding to MaIspE (in words) [3],fragment binding to MpIspD (in words) [4],fragment binding to BpIspF (in words) (BpIspF),solubility (in words) [5]
Cn1ncc2c(NCCc3ccc(Cl)cc3Cl)ncnc21 [Compound 29],0.5,measurable potency,0,12,18,145 to 147,strongest binders,most potent compound tested,6,10,18,high % STD values; also recorded: highest % STD value; also recorded: significant interactions with the active site of BtIspE,–,–,–,–,–,–
Cn1ncc2c(NCc3cccc(F)c3)ncnc21 [Compound 14],–,–,0,10,15,176 to 177,–,–,0,6,11,high % STD values,–,–,–,–,–,–
Cn1ncc2c(NCCc3ccc(O)cc3)ncnc21 [Compound 25],–,Activity was not detected; also recorded: did not show zone of inhibition activity,0,0,0,182 to 184,strongest binders,Activity was not detected; also recorded: did not show zone of inhibition activity,0,0,0,weaker binder,loses all binding signal entirely,no change,–,–,–,–
Cn1ncc2c(NCc3ccc(Cl)cc3)ncnc21 [Compound 17],–,did not show measurable growth inhibition,0,0,0,197 to 199,strongest binders,did not show measurable growth inhibition,0,0,0,–,–,–,hit and clear fragment binder,hit and clear fragment binder,very weak binder below the STD-NMR hit threshold,–
Cn1ncc2c(NCCO)ncnc21 [Compound 3],–,–,0,15,21,196 to 198,–,–,0,0,0,–,–,–,–,–,–,partially soluble
Cn1ncc2c(NCc3ccc(Cl)c(Cl)c3)ncnc21 [Compound 18],–,–,0,10,20,170 to 173,strongest binders,–,0,12,18,high % STD values,–,–,–,–,–,–
